The record followed here is US4197407A, “Prostenoic acids and esters” (American Cyanamid Company, priority 1977, dated 1980).

For assay [1], the system named is mean arterial blood pressure. The experiment in a line: Hypotensive activity in anesthetized rats. The following applies: intravenous infusion over one minute. It counts as in vivo, Male Wistar strain rats. The method, then: This procedure is a modification of the technique described by Pike, et al., Prostaglandins, Nobel Symposium 2, Stockholm, June, 1966, pg. 165.
Male Wistar strain rats (Royal Hart Farms) averaging approximately 250 g in weight are fastened to rat boards in a supine position by means of canvas vests and limb ties. The animals are anesthetized with a 900 mg/kg intraperitoneal dose of urethane. The left carotid artery is cannulated with polyethylene 50 tubing to measure arterial blood pressure and the left external jugular vein is cannulated with polyethylene 50 tubing for drug infusion. The animals are allowed to equilibrate for 15-30 minutes. The test compound is infused in 0.5 ml of saline, over a one minute period, at the indicated dose level, using a Harvard model 940 infusion pump and a 6 cc syringe at speed 5. Each drug dose is flushed with 0.4 ml of saline. The mean arterial blood pressure is measured before and after drug administration using a Statham model P23Db pressure transducer and a Brush model 260 recorder. The percent depression in mean arterial blood pressure and the duration of at least a 10% depression induced by representative compounds of this invention are recorded in Table C.

Assay [2] relates to adenosine diphosphate induced platelet aggregation. The assay can be described thus: Inhibition of platelet aggregation in vitro, adenosine diphosphate induced. It counts as cell-based, Human. The arrangement: key: (-): Inhibition; (+): No inhibition. The source says: (§1) It is well known that platelet aggregation inhibitors may be useful as anti-thrombotic drugs. Inhibition of platelet aggregation can be conveniently measured in vitro by monitoring changes in optical density and/or light transmission in platelet rich plasma upon addition of suitable aggregating agents such as adenosine diphosphate, epinephrine, thrombin or collagen. Alternatively, platelet aggregation can be measured in vitro using platelet rich plasma obtained at various time intervales from animals given inhibitors by an oral or parenteral route.
(§2) Human […] is incubated with modified Tyrode's solution in a proportion of 40-50% human […]. The test compounds are added at varying concentrations and after 5 minutes incubation, an aggregating agent such as adenosine diphosphate or collagen is added. The change in optical density (light transmission) is monitored by eye and inhibition is recorded as a (-) or lack of inhibition is recorded as a (+). Test compounds are considered active if they inhibit adenosine diphosphate or collagen induced aggregation at a concentration of 25 mcg/ml or less within 5-10 minutes.

Assay [3] concerns collagen induced platelet aggregation. The assay can be described thus: Inhibition of platelet aggregation in vitro, collagen induced. In kind it is cell-based, Human. The arrangement: key: (-): Inhibition; (+): No inhibition.
Excerpt: as §1, §2

Assay [4] deals with respiratory depression produced by arachidonate. The assay can be described thus: Inhibition of respiratory depression produced by arachidonate in mice, in vivo. The arrangement: species or system Swiss, male, albino mice. The following applies: 2 hours before 50 mg/kg i.v. sodium arachidonate. Here is the method:
Swiss, male, albino mice, weighing about 20 g, are placed in control and drug groups, each with 4-6 mice and fasted. The drug mice are dosed with 50, 25, 10, or 1 mg/kg of a test compound suspended in volumes of 0.5, 0.25, or 0.10 ml of 2% starch solution. Control animals receive starch solution alone. After 2 hours all the mice are challenged with an intravenous dose of 50 mg/kg of sodium arachidonate in a volume of 0.2 ml, by tail vein. The onset of effect and duration of respiratory depression and recovery or death is quantitated. The percent inhibition of respiratory depression is computed from the mean of the drug group and the mean of the control group. Compounds giving 30% or more inhibition at 25 mg/kg or less are considered active.

Assay [5] concerns bronchospasms elicited by acetylcholine. The experiment in a line: Bronchodilator activity (Konzett procedure) against acetylcholine. It counts as in vivo, guinea pigs. The following applies: Cavia porcellus; three logarithmic cumulative intravenous doses; spasmogen acetylcholine i.v. The method, then: (§3) Bronchodilator activity is determined in guinea pigs against bronchospasms elicited by intravenous injections of 5-hydroxytryptamine, histamine or acetylcholine by the Konzett procedure. [See J. Lulling, P. Lievens, F. El Sayed and J. Prignot, Arzeneimittel-Forschung, 18, 995 (1968).] In Table D, bronchodilator activity for representative compounds of this invention against one or more of the three spasmogenic agents is expressed as an ED50 determined from the results obtained with three logarithmic cumulative intravenous doses.

The test system of assay [6] is bronchospasms elicited by 5-hydroxytryptamine. The experiment in a line: Bronchodilator activity (Konzett procedure) against 5-hydroxytryptamine. It counts as in vivo, guinea pigs. The following applies: Cavia porcellus; three logarithmic cumulative intravenous doses; spasmogen 5-hydroxytryptamine i.v. Here is the method: as §3
The subject of assay [7] is bronchospasms elicited by histamine. The assay can be described thus: Bronchodilator activity (Konzett procedure) against histamine. The following applies: Cavia porcellus; three logarithmic cumulative intravenous doses; spasmogen histamine i.v. It counts as in vivo, guinea pigs. Here is the method:
as §3

For the compound `CCCC[C@@H]1CCC[C@]1(O)/C=C/[C@H]1CCC(=O)[C@@H]1CCCCCCC(=O)OCC` (relative stereo) [Ethyl nat-15R,16R(and ent-15S,16S)-15-hydroxy-9-oxo-15,16-trimethylene-13-trans-prostenoate], in assay [1] (dose 4.0 mg/kg), the “Duration in Minutes of at Least 10% Depression” value came to 4 min and the “Percent Depression of Mean Arterial Blood Pressure” value (from here on “Percent Depression”) was -16%.

`CCCC[C@H]1CCC[C@@]1(O)/C=C/[C@H]1CCC(=O)[C@@H]1CCCCCCC(=O)OCC` (relative stereo) [Ethyl nat-15S,16S(and ent-15R,16R)-15-hydroxy-9-oxo-15,16-trimethylene-13-trans-prostenoate]: in assay [1] (dose 1.6 mg/kg), the “Duration in Minutes of at Least 10% Depression” value turned out to be 5 min and the “Percent Depression” value is recorded as -43%.

Turning to `O=C(O)CCCCCC[C@H]1C(=O)CC[C@@H]1/C=C/C1=CCCCC1` (relative stereo) [nat(and ent)-9-oxo-15,16-Tetramethylene-17,18,19,20-tetranor-15,13-trans-prostadienoic Acid], the “Inhibition of Platelet Aggregation - In Vitro, Adenosine Diphosphate” value (from here on “Inhibition … Adenosine Diphosphate”) in assay [2] (drug concentration 25 μg/ml) and in assay [2] (drug concentration 250 μg/ml) was “(-)” each time. In addition, the “Inhibition of Platelet Aggregation - In Vitro, Collagen” value (shortened to “Inhibition … Collagen”) in assay [3] (drug concentration 25 μg/ml) and in assay [3] (drug concentration 250 μg/ml) was “(-)” in each case. Moreover, the “Inhibition of Respiratory Depression - In Vivo, Percent Inhibition” value (from here on “Inhibition … Percent Inhibition”) in assay [4] (25 mg/kg) is 28%.

Broadly, the ED50 is the dose that gives a 50% effect, or the effect in half of the subjects. With `O=C(O)CCC/C=C\C[C@H]1C(=O)C[C@@H](O)[C@@H]1/C=C/C1(O)CCCCC1` (relative stereo) [nat(and ent)-11α,15-Dihydroxy-9-oxo-15,16-tetramethylene-17,18,19,20-tetranor-5-cis,13-trans-prostadienoic Acid], it took a dose of 0.115 µg/kg to reach the 50% effect level in assay [5] (ED50). In addition, the “Duration in Minutes of at Least 10% Depression” value in assay [1] (dose 2.2 mg/kg) stood at 23 min. The “Percent Depression” value in assay [1] (dose 2.2 mg/kg) is given as -31%. Besides, the “Inhibition … Adenosine Diphosphate” value in assay [2] (drug concentration 0.25 μg/ml) was “(+)”; in assay [2] (drug concentration 2.5 μg/ml) it was “(-)”; in assay [2] (drug concentration 25 μg/ml), “(-)”; in assay [2] (drug concentration 250 μg/ml), “(-)”. The “Inhibition … Collagen” value in assay [3] (drug concentration 0.25 μg/ml) is recorded as “(+)”; in assay [3] (drug concentration 2.5 μg/ml), “(-)”; in assay [3] (drug concentration 25 μg/ml), “(-)”; in assay [3] (drug concentration 250 μg/ml), “(-)”. Moreover, the “Inhibition … Percent Inhibition” value is reported as 6% in assay [4] (10 mg/kg) and 14% in assay [4] (25 mg/kg).

In the case of `O=C(O)CCCCCC[C@H]1C(=O)C[C@@H](O)[C@@H]1/C=C/C1(O)CCCCC1` (relative stereo) [nat(and ent)-11α,15-Dihydroxy-9-oxo-15,16-tetramethylene-17,18,19,20-tetranor-13-trans-prostenoic Acid], the “Duration in Minutes of at Least 10% Depression” value in assay [1] (dose 2.1 mg/kg) is 16 min. In addition, the “Percent Depression” value in assay [1] (dose 2.1 mg/kg) was -39%. The “Inhibition … Adenosine Diphosphate” value was “(+)” in assay [2] (drug concentration 0.25 μg/ml), “(-)” in assay [2] (drug concentration 2.5 μg/ml), “(-)” in assay [2] (drug concentration 25 μg/ml) and “(-)” in assay [2] (drug concentration 250 μg/ml). For the same compound, the “Inhibition … Collagen” value in assay [3] (drug concentration 0.25 μg/ml) is reported as “(+)”; in assay [3] (drug concentration 2.5 μg/ml) it was “(-)”; in assay [3] (drug concentration 25 μg/ml), “(-)”; in assay [3] (drug concentration 250 μg/ml), “(-)”.

For the compound `O=C(O)CCC/C=C\C[C@H]1C(=O)C=C[C@@H]1/C=C/C1(O)CCCCC1` (relative stereo) [nat(and ent)-15-Hydroxy-9-oxo-15,16-tetramethylene-17,18,19,20-tetranor-13-trans,5-cis,10-prostatrienoic acid], the ED50 in assay [5] is above 3.2 µg/kg; in assay [6], above 3.2 µg/kg; in assay [7], 0.632 µg/kg. Also, the “Inhibition … Adenosine Diphosphate” value is recorded as “(+)” in assay [2] (drug concentration 25 μg/ml) and “(-)” in assay [2] (drug concentration 250 μg/ml). The “Inhibition … Collagen” value is given as “(+)” in assay [3] (drug concentration 25 μg/ml) and “(-)” in assay [3] (drug concentration 250 μg/ml).

In the case of `O=C(O)CCCCCC[C@H]1C(=O)CC[C@@H]1/C=C/C1(O)CCCCC1` (relative stereo) [nat(and ent)-15-Hydroxy-9-oxo-15,16-tetramethylene-17,18,19,20-tetranor-13-trans-prostenoic Acid], in assay [1] (dose 1.8 mg/kg), the “Duration in Minutes of at Least 10% Depression” value came out at 4 min. In assay [1] (dose 1.8 mg/kg), the “Percent Depression” value was -9%. Further, the “Inhibition … Adenosine Diphosphate” value was “(+)” in assay [2] (drug concentration 0.25 μg/ml), “(+)” in assay [2] (drug concentration 2.5 μg/ml), “(-)” in assay [2] (drug concentration 25 μg/ml) and “(-)” in assay [2] (drug concentration 250 μg/ml). Besides, the “Inhibition … Collagen” value is “(+)” in assay [3] (drug concentration 0.25 μg/ml), “(+)” in assay [3] (drug concentration 2.5 μg/ml), “(-)” in assay [3] (drug concentration 25 μg/ml) and “(-)” in assay [3] (drug concentration 250 μg/ml). Besides, the “Inhibition … Percent Inhibition” value in assay [4] (1 mg/kg) is listed as 33%.

With `CCCC[C@H]1CCC[C@@]1(O)/C=C/[C@H]1CCC(=O)[C@@H]1CCCCCCC(=O)O` (relative stereo) [nat-15S,16S(and ent-15R,16R)-15-Hydroxy-9-oxo-15,16-trimethylene-13-trans-prosenoic Acid], the ED50 in assay [5] stood at 0.413 µg/kg; in assay [6], 0.112 µg/kg.

Take `CCCCC1CCCC1(O)/C=C/C1CCC(=O)C1CCCCCCC(=O)OCC` [Ethyl nat-15S,16R(and ent-15R,16S)-15-hydroxy-9-oxo-15,16-trimethylene-13-trans-prostenoate and Ethyl nat-15R,16S(and ent-15S,16R)-15-hydroxy-9-oxo-15,16-trimethylene-13-trans-prostenoate]: in assay [1] (dose 1.9 mg/kg), the “Duration in Minutes of at Least 10% Depression” value amounted to 7 min and the “Percent Depression” value is -18%.

`CCCCC1CCCC1(O)/C=C/C1CCC(=O)C1CCCCCCC(=O)O` [nat-15S,16R(and ent-15R,16S) and nat-15R,16S(and ent-15S,16R)-15-Hydroxy-9-oxo-15,16-trimethylene-13-trans-prostenoic Acid] showed an ED50 in assay [6] of 0.32 µg/kg. In assay [1] (dose 2.0 mg/kg), the “Duration in Minutes of at Least 10% Depression” value stood at 4 min and the “Percent Depression” value is listed as -38%.

On to `CCCCC1CCCC1(O)/C=C/C1C(O)CC(=O)C1C/C=C\CCCC(=O)O` [nat-15S,16R(and ent-15R,16S) and nat-15R,16S-(and ent-15S,16R)-11α,15-Dihydroxy-9-oxo-15,16-trimethylene-13-trans-5-cis-prostadienoic Acid], for which, in assay [1] (dose 1.7 mg/kg), the “Duration in Minutes of at Least 10% Depression” value was above 10 min and the “Percent Depression” value was -47%. The “Inhibition … Adenosine Diphosphate” value in assay [2] (drug concentration 25 μg/ml) is listed as “(+)”. Further, the “Inhibition … Adenosine Diphosphate” value in assay [2] (drug concentration 250 μg/ml) is listed as “(-)”. Further, in assay [3] (drug concentration 250 μg/ml), the “Inhibition … Collagen” value is reported as “(+)”.
